Assay results taken from BindingDB's records for doi:10.7270/Q2X63KBQ (The Scripps Research Institute Molecular Screening Center, 2009).

Target: VIM-2 metallo β-lactamase (Pseudomonas aeruginosa, UniProt Q9K2N0)
Experiment: VIM-2 metallo-beta-lactamase inhibitor potency, dose response, biochemical, epi-absorbance readout, selective inhibitors (AID 1919)

| SMILES | IC50 |
| --- | --- |
| COc1ccc(OC)c(C2C(C(=O)c3ccco3)C(=O)C(=O)N2Cc2cccnc2)c1 (stereo not drawn) [2-(2,5-dimethoxyphenyl)-3-(furan-2-carbonyl)-4-hydroxy-1-(pyridin-3-ylmethyl)-2H-pyrrol-5-one] | 1.94 µM |
| COc1ccc(C(=O)C2C(=O)C(=O)N(Cc3ccco3)C2c2cc(OC)ccc2OC)cc1 (stereo not drawn) [(4E)-5-(2,5-dimethoxyphenyl)-1-(2-furanylmethyl)-4-[hydroxy-(4-methoxyphenyl)methylidene]pyrrolidine-2,3-dione] | 12.8 µM |
| O=C1C(=O)N(Cc2cccnc2)C(c2ccccn2)C1C(=O)c1cccs1 (stereo not drawn) [3-hydroxy-5-(2-pyridinyl)-1-(3-pyridinylmethyl)-4-(2-thienylcarbonyl)-1,5-dihydro-2H-pyrrol-2-one] | 13.2 µM |
| O=C1C(=O)N(Cc2cccnc2)C(c2ccccn2)C1C(=O)c1ccccc1 (stereo not drawn) [(4Z)-4-[hydroxy(phenyl)methylene]-5-(2-pyridyl)-1-(3-pyridylmethyl)pyrrolidine-2,3-quinone] | 5 µM |
| COc1cc(OC)c(OC)cc1C=NNC(=O)Cc1c(C)[nH][nH]c1=O [MLS000555854] | 4.22 µM |
| COc1ccc(OC)c(C=NNC(=O)Cc2c(C)[nH][nH]c2=O)c1 [SMR000147372] | 6.1 µM |
| O=C1C(=O)N(Cc2cccnc2)C(c2ccccn2)C1C(=O)c1ccc(F)cc1 (stereo not drawn) [(4Z)-4-[(4-fluorophenyl)-hydroxy-methylene]-5-(2-pyridyl)-1-(3-pyridylmethyl)pyrrolidine-2,3-quinone] | 2.42 µM |

Target: Beta-lactamase (Pseudomonas aeruginosa, UniProt Q932Y6)
Experiment: as above

Chain of Beta-lactamase (Q932Y6 whole entry): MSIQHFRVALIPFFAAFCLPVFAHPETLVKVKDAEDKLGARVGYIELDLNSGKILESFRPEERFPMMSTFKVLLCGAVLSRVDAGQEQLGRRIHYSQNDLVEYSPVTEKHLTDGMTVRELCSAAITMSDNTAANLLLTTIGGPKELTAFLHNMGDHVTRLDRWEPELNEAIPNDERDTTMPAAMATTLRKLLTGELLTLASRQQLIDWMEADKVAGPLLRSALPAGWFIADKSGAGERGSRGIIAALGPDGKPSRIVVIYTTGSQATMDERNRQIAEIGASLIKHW

| SMILES | IC50 |
| --- | --- |
| Cn1c(-c2sccc2OCc2ccc(Cl)cc2Cl)n[nH]c1=S | 6.63 µM |
